Where only a bound is given, the exact number is not on record here.

Among the data in patent US20120232062A1, “AZAINDAZOLES TO TREAT FLAVIVIRIDAE VIRUS INFECTION” (EIGER BIOPHARMACEUTICALS, INC., priority 2009, published 2012) are EC50 values, retold here.

One experiment has as its system HCV genotype 1b. Kind of experiment: HCV 1b replicon luciferase assay. It is filed as cell-based. The note with it: Hepatitis C virus, 48 h, read-out: EC50 in the 48 hour 1b replicon assay, 48 hour. From the text: A suitable 1b HCV RNA replicon assay uses the Huh7 cell line which contains an HCV 1b RNA replicon with a stable luciferase (LUC) reporter. This construct contains modifications that make the cell line more robust and provides stable LUC expression for antiviral screening. The LUC reporter is used as an indirect measure of HCV replication. The activity of the LUC reporter is directly proportional to HCV RNA levels and positive control antiviral compounds behave comparably using LUC endpoints. […]
Fresh growth medium is prepared just before use. The container used in the procedure is a 10 cm diameter culture dish. HCV replicon reporter cell lines are used. Prepare complete medium: add FBS and appropriate additives as described in “Culture Media”, below. Pre-warm the medium in a 37° C. thermostat water bath. Remove the dish from a 37° C. CO2 incubator. Check the cell name and complete medium and passage number marked on the dish. Aspirate the medium carefully and add 1 ml PBS to rinse the cells. Remove and discard the solution and add 1 ml of 0.25% Trypsin/0.02% EDTA. Rinse the cells with the added Trypsin/EDTA to ensure all the cells have been rinsed. Remove the Trypsin/EDTA with a vacuum pump and incubate at 37° C. for 3-5 minutes. Examine the cell morphology under an inverted microscope to confirm that a single cell suspension is clearly visible. Add 3 ml of complete medium to the dish and suspend the cell by gentle pipetting. Count the cell numbers with a hematometer. Adjust cell density to 100 k/ml by adding appropriate volume of the complete medium. Add 100 μl of cell suspension to each well of a 96-well white plate; the cell density is thus 10 k per well. Mark the plate with cell name, passage number, seeding density, date and the name of the operator. Place the 96-well assay plate in 37° C. 5% CO2 incubator for 24 hours.
Compounds are prepared or provided at 25 mM in 100% DMSO. This is the compound stock solution. The dilution procedure should be performed in a cell culture hood. Dispense the stock solution into the second column of a 96-well plate. Prepare 9-step (10 concentrations total), 5-fold serial dilutions by transferring 10 μA of the compound into the next well containing 40 μA of DMSO. Repeat for all compounds. Aspirate 2 μl of the above compound solution from each well and add into 198 μl complete media using a 12-channel pipetter to obtain the 10-fold concentration compound solution with 1% DMSO, mix well.
Remove the 96-well assay plate from the 37° C./5% CO2 incubator, examine the cell morphology under an inverted microscope. In a cell culture hood, add 10 μl of the 10× concentration compounds solution into each well on the 96-well assay plate. All compound's dose responses are done in duplicate. The starting final concentration of the compounds is 25 μM, and DMSO final concentration 0.1%. Mark the plate with compound code(s) and concentrations. Place the 96-well assay plate into CO2 incubator for 48 hours. Add 30 μl of Stead-Glo Luciferase System (Promega) reagent to each well and mix by gentle shaking on a plate shaker for 5 minutes to allow throughout cell lysis. Measure the luminescence with Envision (Perkin Elmer) with an integration time of 2 seconds. Record and analyze the data.
The cell culture media is DMEM complete: DMEM (Life Technologies #41965-039) supplemented with 10% FCS, 2 mM Glutamin (Life Technologies #25030-024), Penicillin (100 IU/ml)/Streptomycin (100 μg/ml) (Life Technologies #15140-114) and 1× nonessential amino acids (Life Technologies #11140-035). G418 (“Geneticin”, Life Technologies): concentrations are given as weight per volume of the original substance. Specific activity of a typical batch is ca. 700 μg/mg as stated by the manufacturer. […] Therefore each new batch of G418 should be tested individually e.g. in an electroporation experiment using different selection conditions (0.2-1 mg/ml).
As a reminder, the EC50 is the concentration giving half of the maximal effect. In the case of `Cn1nc(C(=O)NC2CCNCC2)c2ccc(N3CCCCCC3)nc21` [EBP697], the EC50 is under 3 µM.
In the case of `CCC(CC)Oc1ccc2c(COCC3CCNCC3)nn(Cc3ccc(Cl)cc3)c2n1` [EBP756], the EC50 is under 3 µM.
Regarding `Cn1nc(C(=O)NCc2cccs2)c2cc(NC3CCCCC3)cnc21` [EBP1147], the EC50 was under 3 µM.

The experiment is the same for the next values; noted with them: Hepatitis C virus, Huh-7, 48 h, Table 1; Huh7 HCV 1b replicon, luciferase reporter, 48 hours; read-out: 1b EC50.
With `Cn1nc(NC(=O)c2ccncc2)c2ccc(N3CCCCCC3)nc21` [compound 839], the EC50 amounted to 2.5 µM.
Same read-out and setting: then `Clc1ccc(Cn2nc(COCCCN3CCCCC3)c3ccc(N4CCCCCCC4)nc32)cc1` [compound 1205], with 4 µM; and `Cn1nc(-c2cnc(C(=O)NCc3ccccc3)s2)c2ccc(N3CCCCCCC3)nc21` [compound 1250], with 1.4 µM; and `COCC1CCCCN1CCN1CCC(NC(=O)c2nn(C)c3nc(N4CCCCCC4)ccc23)CC1` (centres unmarked) [compound 1426], with 0.45 µM.
Take `CC(C)c1ccc(CN2CCC(NC(=O)c3nn(C)c4nc(N5CCCCCC5)ccc34)CC2)cc1` [compound 1046]: the EC50 was 1.4 µM.
Still for that read-out and setting: then `Cn1nc(C(=O)NC2CCN(CC(F)F)CC2)c2ccc(NC3CCCCCCC3)nc21` [compound 1472], with 1.4 µM; and `Cn1nc(NC(=O)C2CCCNC2)c2ccc(N3CCCCCC3)nc21` (centres unmarked) [compound 1036], with 8.7 µM.
Same read-out and setting: under `O=C(NC1CCNCC1)c1nn2c3nc(ccc13)OC/C=C/CCCCC2` [compound 877] stands 3.3 µM; under `Cn1nc(NC(=O)CC2CCCNC2)c2ccc(N3CCCCCC3)nc21` (centres unmarked) [compound 843], 8.3 µM.
Still for that read-out and setting: under `C[C@@H]1CCC[C@H]1Oc1ccc2c(C(=O)NC3CCNCC3)nn(C)c2n1` [compound 945] stands 2.6 µM.
As for `Cn1nc(C(=O)NC2CCNCC2)c2ccc(OCc3ccccc3)nc21` [compound 1051], the EC50 was determined as 2.9 µM.
On the same count and under the same terms, under `Cn1nc(C(=O)NC2CCN(CCN3CCCC3)CC2)c2ccc(NC3CCCCC3)nc21` [compound 1581] stands 3.3 µM; under `CC1CC(NC(=O)c2nn(C)c3nc(N4CCCCCCC4)ccc23)CCN1Cc1ccc(OC(F)F)cc1` (centres unmarked) [compound 1152], 6.1 µM.
Same read-out and setting: then `Cn1nc(COCC2CCNCC2)c2ccc(N3CCCCCC3)nc21` [compound 985], with 7.6 µM; and `CCC(CC)Oc1ccc2c(C(=O)NC3CCNCC3)nn(Cc3ccc(Cl)cc3)c2n1` [compound 795], with 3.2 µM; and `CN(c1ccc2c(C(=O)NC3CCNCC3)nn(C)c2n1)C1CCCCCCC1` [compound 893], with 1.1 µM.
For `CN1C2CCC1CC(NCc1nn(C)c3nc(N4CCCCCC4)ccc13)C2` (centres unmarked) [compound 910], the EC50 is 3.9 µM.
For `CCCCCCNc1ccc2c(C(=O)NC3CCCNC3)nn(-c3cccc(Cl)c3C)c2n1` (centres unmarked) [compound 1378], the half-maximal effective concentration (EC50) was found to be 2.6 µM.
Turning to `Cn1nc(C(=O)NC2CCN(Cc3ccc(-c4ccccc4)cc3)CC2)c2ccc(O)nc21` [compound 972], the 50% effective concentration (EC50) was determined as 3.7 µM.
Regarding `CCC(CC)n1nc(C(=O)NC2CCNCC2)c2ccc(N3CCCCCC3)nc21` [compound 859], the EC50 worked out at 2.8 µM.
Still for that read-out and setting: under `COCC1CCN(CCN2CCC(NC(=O)c3nn(C)c4nc(N5CCCCCC5)ccc34)CC2)C1` (centres unmarked) [compound 1557] stands 2.1 µM.
On to `CCC(CC)Oc1ccc2c(NC(=O)CC3CCNCC3)nn(C)c2n1` [compound 953], for which the concentration giving a half-maximal response (EC50) amounted to 6.4 µM.
Still for that read-out and setting: then `COC[C@@H]1CCCN1CCCc1nn(C)c2nc(N3CCCCCCC3)ccc12` [compound 1465], with 4.7 µM.
Same read-out and setting: then `CC(C)CN1CCC(NC(=O)c2nn(C)c3nc(N4CCCCCCC4)ccc23)CC1` [compound 1236], with 6.3 µM.
In the case of `O=C(NC1CCNCC1)c1nn(CC2CCCCC2)c2nc(N3CCCCCC3)ccc12` [compound 845], the 50% effective concentration (EC50) is 2 µM.
For the molecule `Cn1nc(C(=O)NC2CCN(CCN3CC[C@@H](O)C3)CC2)c2ccc(N3CCCCCC3)nc21` [compound 1558], the half-maximal effective concentration (EC50) was 3.4 µM.
The same measure, in the same setting: under `O=C(Nc1n[nH]c2nc(N3CCCCCC3)ccc12)C1CCCNC1` (centres unmarked) [compound 681] stands 8.5 µM; under `CCC(CC)Oc1ccc2c(NC(=O)C3CCNCC3)nn(C)c2n1` [compound 962], 4.4 µM; under `Cn1nc(C(=O)NC2CCN(CCCC3CCCCC3)CC2)c2ccc(N3CCCCCC3)nc21` [compound 1031], 0.69 µM.
Turning to `Cn1nc(C(=O)NC2CCCNC2)c2ccc(N3CCCCCC3)nc21` (centres unmarked) [compound 698], the EC50 is 3.8 µM.
In the case of `Cn1nc(-c2ncc(-c3ccc(Br)cc3)[nH]2)c2ccc(N3CCCCCC3)nc21` [compound 1069], the half-maximal effective concentration (EC50) amounted to 8.3 µM.
Same read-out and setting: then `Cn1nc(C(=O)NC2CCN(CCN3CCCC3)CC2)c2ccc(N3CCCCCCC3)nc21` [compound 1296], with 0.5 µM; and `CCCN1CCC(NC(=O)c2nn(C)c3nc(N4CCCCCCC4)ccc23)CC1` [compound 1235], with 3.4 µM.
For the molecule `COc1ccc(CN2CCC(NC(=O)c3nn(C)c4nc(N5CCCCCC5)ccc34)CC2)cc1` [compound 1044], the 50% effective concentration (EC50) worked out at 0.76 µM.
Turning to `Cn1nc(-c2cnc(C(=O)NCC3CCCCC3)s2)c2ccc(N3CCCCCCC3)nc21` [compound 1251], the EC50 is 1 µM.
With `Cn1nc(-c2nnc(C3CCCNC3)o2)c2ccc(N3CCCCCCC3)nc21` (centres unmarked) [compound 1271], the EC50 came to 3.2 µM.
Consider `CCC(CC)Oc1ccc2c(C(=O)NC3CCNCC3)nn(C)c2n1` [compound 816], for which the EC50 was found to be 2.4 µM.
With `Cn1nc(C(=O)NC2CCN(Cc3ccc(-c4ccccc4)cc3)CC2)c2ccc(OCc3ccc(-c4ccccc4)cc3)nc21` [compound 973], the EC50 was 5.4 µM.
With `C=CCCCCCCN1CCC(NC(=O)c2nn(C)c3nc(N4CCCCCC4)ccc23)CC1` [compound 1103], the concentration giving a half-maximal response (EC50) is 0.3 µM.
Still for that read-out and setting: then `Cn1nc(NC(=O)c2ccccc2C(F)(F)F)c2ccc(N3CCCCCC3)nc21` [compound 836], with 4.1 µM.
Same read-out and setting: under `O=C(NCC1CCCNC1)c1nn(Cc2ccc(Cl)cc2)c2nc(N3CCCCCC3)ccc12` (centres unmarked) [compound 850] stands 2.5 µM; under `O=C(NC1CCN(CCN2CCCCC2)CC1)c1nn(CC2CC2)c2nc(N3CCCCCC3)ccc12` [compound 1489], 0.55 µM; under `CC(C)n1nc(C(=O)NC2CCNCC2)c2ccc(N3CCCCCC3)nc21` [compound 857], 3.1 µM.
For `CCCn1nc(C(=O)NC2CCN(CCN3CCCCC3)CC2)c2ccc(N3CCCCCC3)nc21` [compound 1486], the EC50 amounted to 0.76 µM.
Same read-out and setting: under `CCC(CC)Oc1ccc2c(NC(=O)[C@H]3CC[C@H](N)CC3)nn(C)c2n1` [compound 949] stands 5.7 µM; under `CC(C)CN(C)c1ccc2c(C(=O)NC3CCCNC3)nn(C)c2n1` (centres unmarked) [compound 686], 2.6 µM; under `CC(C)CN(C)c1ccc2c(C(=O)NC3CCN(CC4CCCCC4)CC3)nn(C)c2n1` [compound 1075], 0.76 µM.
Consider `CCCN1CCC(NC(=O)c2nn(C)c3nc(N4CCCCCC4)ccc23)CC1` [compound 1596], for which the 50% effective concentration (EC50) was determined as 1.4 µM.
Same read-out and setting: under `Cn1nc(-c2nnc(C3CCCCN3CCN3CCCCC3)o2)c2ccc(N3CCCCCCC3)nc21` (centres unmarked) [compound 1326] stands 4.8 µM; under `CCC(CC)Oc1ccc2c(C(=O)NC3CCCNC3)n[nH]c2n1` (centres unmarked) [compound 725], 7.6 µM; under `Cn1nc(C(=O)NC2CCNCC2)c2ccc(OCc3ccccc3-c3ccc(Cl)cc3)nc21` [compound 1102], 0.62 µM.

Staying with this experiment, now noted: Table 1; Huh7 HCV 1b replicon, luciferase reporter, 48 hours; read-out: 1b EC50.
As for `Cn1nc(C(=O)NC2CC3CCCC(C2)N3)c2ccc(N3CCCCCC3)nc21` (centres unmarked) [compound 880], the 50% effective concentration (EC50) was found to be 8.1 µM.
The same measure, in the same setting: under `Cn1nc(C(=O)NC2CCN(CC3CCCCC3)CC2)c2ccc(NC3CCCCCCC3)nc21` [compound 1477] stands 0.53 µM.
